Source: article PMC6325233, “A Novel Actin Binding Drug with In Vivo Efficacy” (Antimicrobial Agents and Chemotherapy, 2018)
Like-named read-outs stand apart in the source and are kept apart here.

Assays:
[1] = cited from earlier work
Procedure: Occidiofungin is a nonribosomally synthesized glycolipopeptide produced by the soil bacterium Burkholderia contaminans MS14 ([21]). It is a cyclic peptide with a base mass of 1,200 Da (Fig. 1) ([21]). Occidiofungin has a wide spectrum of activities against filamentous and nonfilamentous fungi and minimal toxicity in an animal system ([21], [22]). […] Occidiofungin, on the other hand, is well tolerated at 5 mg/kg or 20 mg/kg when administered intravenously or subcutaneously, respectively ([22], [25]). This dose is much higher than the MIC of occidiofungin against several fungal pathogens. ...

[2] = tested on: Trichophyton rubrum 11199; assay: MIC susceptibility testing (terbinafine-resistant strain); assay type: cell-based; conditions: CLSI M38-A2; 96 hours
Procedure: Occidiofungin was purified from a liquid culture of Burkholderia contaminans MS14 as previously described ([21]). MIC susceptibility testing was performed according to the CLSI M27-A3 and M38-A2 standards for the susceptibility testing of yeasts and filamentous fungi, respectively. S. cerevisiae deletion mutants were obtained from the commercially available BY4741 deletion library (Thermo Scientific).

[3] = tested on: yeast; conditions: cited from earlier work
From the text: Occidiofungin is a nonribosomally synthesized glycolipopeptide produced by the soil bacterium Burkholderia contaminans MS14 ([21]). It is a cyclic peptide with a base mass of 1,200 Da (Fig. 1) ([21]). Occidiofungin has a wide spectrum of activities against filamentous and nonfilamentous fungi and minimal toxicity in an animal system ([21], [22]).

[4] = tested on: S. cerevisiae (BY4743, diploid); assay: DNA (nuclear) segregation assay, DAPI; assay type: cell-based; conditions: for percentage of cells in category, column 2 / percentage of cells in category, column 4 / percentage of cells in category, column 3 / percentage of cells in category, column 1: 0.5X MIC, 30 °C, two experiments; for percentage of cells in category, column 2: untreated 3.9 ± 1.2; for percentage of cells in category, column 4: untreated 1.4 ± 0.5; for percentage of cells in category, column 3: untreated 13.7 ± 2.5; for percentage of cells in category, column 1: untreated 80.4 ± 2.6
Procedure: (§1) The hyphal induction assay was performed as previously reported with minor modifications ([58]). Candida albicans strain ATCC 66027 was grown in yeast extract-peptone-dextrose (YPD) medium at 30°C for 48 h to reach saturation with an OD600 of 17 to 19. Cells were diluted into fresh Spider medium (1% nutrient broth, 1% mannitol, 0.2% K2HPO4) to obtain an OD600 of 0.05 (∼0.5 × 10^6 to 1 × 10^6 cells/ml) and incubated at 37°C with shaking to induce hyphal formation. Immediately prior to the 37°C incubation, occidiofungin (1 µg/ml; 0.5× MIC) or an equal volume of DMSO was added to the cultures. Aliquots were removed at 0-, 1-, 2-, 4-, and 6-h time points and fixed in 3.7% formaldehyde for later analysis of cell morphology by light microscopy. More than 200 cells were examined for each time point, and cells were scored as having either a yeast or filamentous form, with cells showing any outgrowth considered filamentous. DNA segregation assays were performed using a mid-log culture of S. cerevisiae (BY4743, diploid) and C. albicans (ATCC 66027). The cultures were diluted in fresh YPD medium to obtain OD600s of 0.095 (∼1 × 10^6 to 1.5 × 10^6 cells/ml) and 0.05 (0.5 × 10^6 to 0.8 × 10^6 cells/ml), respectively. A blank vehicle control (DMSO) or occidiofungin (1 µg/ml; 0.5× MIC) was added, and the cultures were placed at 30°C with shaking. Samples were removed at 0.5, 1, and 2 h, and the cells fixed by adding formaldehyde (3.7%). The cells were washed in phosphate-buffered saline (PBS) and permeabilized by adding an equivalent volume of PBS containing 0.2% Triton X-100 for 30 min at room temperature. The cells were washed thrice in PBS, added to concanavalin A-treated glass slides, and overlaid with Vectashield plus DAPI (4′,6-diamidino-2-phenylindole). Images were viewed using a Nikon 50i fluorescence microscope with a 100× oil immersion objective and DAPI filter. Cells were scored on the basis of bud morphology and DNA location. One-way analyses of variance (ANOVAs) with post hoc Tukey’s honestly significant difference (HSD) testing were used to determine statistically significant differences in the distributions between treated and untreated cells. In addition, FM-464 uptake assays were used to observe endocytosis. Three 1-ml aliquots of S. pombe (OD600 of 0.6 to 0.8) were treated with 1 μl DMSO, 0.5 μg/ml (0.5× MIC), or 1 μg/ml (1× MIC) of native occidiofungin for 30 min at 30°C. The cells were washed thrice with PBS and resuspended in YPD medium containing […] FM-464 (Thermo Fisher Scientific). The cells were incubated for 60 min at 30°C, followed by two washes in PBS before visualizing on an Olympus FV1000 confocal microscope with a 40×/0.9 dry objective. Lastly, actin polymerization and depolymerization assays were performed using the Actin polymerization biochem kit (catalog number BK003; Cytoskeleton, Inc.) according to the manufacturer’s instructions.

[5] = tested on: C. albicans (ATCC 66027); assay: DNA (nuclear) segregation assay, DAPI; assay type: cell-based; conditions: for percentage of cells in category, column 2: untreated 10.3 ± 3.8; for percentage of cells in category, column 4: untreated 1.0 ± 0.4; for percentage of cells in category, column 3: untreated 26.6 ± 5.6
Procedure: as §1

[6] = subinhibitory concentration, within 30 min
[7] = 0.5X MIC, 0.5 h, 30 °C, two experiments
[8] = 0.5X MIC, 1 h, 30 °C, two experiments, * p < 0.05

For occidiofungin, the “blood cells and blood chemistry” value [1] is given as “no serious signs of toxicity”, the “toxicity at 5 mg/kg intravenous” value ([1]; intravenous, 5 mg/kg, mice) is given as “minimal induced toxicity” and the “well tolerated dose, intravenous” value ([1]; intravenous) is given as 5 mg/kg. The “blood chemistry and histopathology” value ([1]; mice, 5 mg/kg intravenous) was “a transient nonspecific stress response with no damage to organ tissues”, the “well tolerated dose, subcutaneous” value ([1]; subcutaneous) was 20 mg/kg and the “MIC, 80% inhibition” value [2] was 1 µg/mL. For the same substance, the “MIC, 100% inhibition” value [2] was 2 µg/mL, the “impact on growth rate of yeast” value ([3]; subinhibitory concentrations) was “little to no impact on the growth rate of yeast” and the induction of apoptosis ([3]; yeast cells at the MIC) was “rapidly induces apoptosis in yeast cells”. The “percentage of cells in category (bud morphology and DNA localization), column 1” value [4] was 66.9 ± 6.8%, the “percentage of cells in category, column 2” value (from here on “percentage … column 2”) ([4]; 0.5 h, * p < 0.05) was 0.2 ± 0.3% and the “percentage of cells in category, column 4” value (shortened to “percentage … column 4”) ([4]; 0.5 h, ** p < 0.01) was 12.3 ± 0.6%. The “percentage of cells in category, column 3” value (“percentage … column 3” below) ([4]; 0.5 h) was 20.5 ± 6.5%, the “percentage … column 2” value ([4]; 1 h, * p < 0.05) was 0.4 ± 0.1% and the “percentage … column 3” value ([4]; 1 h, * p < 0.05) was 25.4 ± 4.7%. The “percentage … column 4” value ([4]; 1 h, ** p < 0.01) was 15.1 ± 2.9%, the “percentage of cells in category, column 1” value ([4]; 1 h, ** p < 0.01) was 59.1 ± 7.7% and the “percentage … column 2” value ([4]; 2 h, * p < 0.05) was 0.6 ± 0.8%. For the same substance, the “percentage of cells in category, column 1” value ([4]; 2 h, * p < 0.05) was 63.5 ± 2.2%, the “percentage … column 4” value ([4]; 2 h, ** p < 0.01) was 13.3 ± 0.7% and the “percentage … column 3” value ([4]; 2 h) was 22.7 ± 2.3%. The binucleated cells [4, 6] was “more binucleated cells”, the “percentage of cells in category, column 1” value [5] was 58.1 ± 6.6% and the “percentage … column 2” value ([5]; 0.5X MIC, 0.5 h, 30 °C, two experiments, * p < 0.05) was 1 ± 0.7%. The “percentage … column 4” value [5, 7] was 5.6 ± 0.4%, the “percentage … column 3” value [5, 7] was 35.3 ± 6.8% and the “percentage … column 4” value [5, 8] was 8.1 ± 2.8%. The “percentage … column 2” value [5, 8] was 0.9 ± 0.1%, the “percentage … column 3” value ([5]; 0.5X MIC, 1 h, 30 °C, two experiments) was 28.1 ± 1.3% and the “percentage of cells in category, column 1” value ([5]; 0.5X MIC, 1 h, 30 °C, two experiments, untreated 62.1 ± 8.8) was 62.9 ± 4.2%. For the same substance, the “percentage … column 2” value ([5]; 0.5X MIC, 2 h, 30 °C, two experiments, * p < 0.05) was 0.4 ± 0.6%, the “percentage … column 4” value ([5]; 0.5X MIC, 2 h, 30 °C, two experiments, ** p < 0.01) was 11.4 ± 3.8% and the “percentage … column 3” value ([5]; 0.5X MIC, 2 h, 30 °C, two experiments) was 26.3 ±12.1%. For the same substance, the “percentage of cells in category, column 1” value ([5]; 0.5X MIC, 2 h, 30 °C, two experiments, untreated 62.1 ± 8.8) was 61.9 ± 7.7% and the binucleated cells [5, 6] was “more binucleated cells”.
